Experimental data as given in patent US20250059215A1, “Trifluoroborate (BF3) Compositions For Use In Boron Neutron Capture Therapy and Methods Thereof” (TAE Life Sciences LLC, priority 2023, published 2025).

Key:
[1] = test system: FaDu cells; test: Uptake of boron compounds in FaDu cells in vitro (Example 7); type: cell-based; conditions: 2.5 mM in HBSS, two (2) hrs; for uptake (boron) in FaDu cells: 37° C., boron by ICP-OES, FaDu compared with U343MG
Experimental: (§1) In this experiment, the uptake of BPA, FBH FBF, and LBH was carried out to determine which compounds show greater uptake FaDu and U343MG cells. The following protocols were used. Briefly, two (2) assays were performed, one using FaDu cells and the other using U343MG cells. FaDu and U343MG cells were harvested and washed with PBS twice. The count was adjusted to 2 million/ml in HBSS. Boron compounds were added to cells at the final concentration of 2.5 mM in HBSS and the cells were incubated at 37° C., in a humidified 5% CO2 atmosphere for two (2) hrs. with shaking. Following a two (2) hour incubation, cells were harvested and washed twice with ice cold PBS. Cells were then suspended in 1 ml ice cold PBS and a portion (50 μl) was lysed in RIPA buffer and protein content determined by BCA assay. The remaining portion (950 μl) was subjected to nitric acid lysis (66.7% acid at 80° C.). Boron measurements were carried out using ICP-OES. Boronophenylalanine (as fructose solution) was used as a control.

[2] = test system: U343MG cells; test: Uptake of boron compounds in U343MG cells in vitro (Example 7); type: cell-based; conditions: 2.5 mM in HBSS, two (2) hrs; for uptake (boron) in U343MG cells: 37° C., boron by ICP-OES
Experimental: as §1

[3] = test system: intracranial tumor; conditions: BNCT, beam directed to surgically exposed intracranial tumor, Japan 1968; cited from earlier work
[4] = test system: FaDu cells; test: Uptake of boron compounds in FaDu cells in vitro (Example 6); type: cell-based; conditions: 2.5 mM in HBSS, 37° C., two (2) hrs, boron by ICP-OES; compared with BPA (fructose solution)
Experimental: as §1, with “The” for “In this experiment, the uptake of BPA, FBH FBF, and LBH was carried out to determine which compounds show greater uptake FaDu and U343MG cells. The”, “Briefly,” for “Briefly, two (2) assays were performed, one using”, “FaDu” for “FaDu cells and the other using U343MG cells. FaDu and U343MG”

Compound | uptake (boron) in FaDu cells [1] | uptake relative to the other compounds, FaDu cells ([1]; versus BPA, FBH, LBH) | uptake (boron) in U343MG cells [2] | uptake relative to the other compounds, U343MG cells ([2]; versus BPA, FBH, LBH) | 5-year survival rate [3] | uptake (boron) in FaDu cells [4]
N[C@@H](Cc1ccccc1)[B-](F)(F)F.[K+] [FBF, [(1R)-1-amino-2-phenylethyl]trifluoroboranuide] | slightly lower uptake | marginally greater uptake than the other compounds | sufficient level uptake | marginally greater uptake than the other compounds |  | 
N[C@@H](Cc1ccccc1)B(O)O [FBH, L-phenylalanine boronic acid] | slightly lower uptake |  | sufficient level uptake |  |  | 
un-decahydrododecaborane thiol [BSH] |  |  |  |  | 58% | 
N[C@@H](Cc1ccc(B(O)O)cc1)C(=O)O [BPA, 4-Borono-L-phenylalanine, reference compound] | slightly lower uptake |  | sufficient level uptake |  |  | 
CC(C)C[C@H](N)B(O)O [LBH, L-leucine boronic acid] | slightly lower uptake |  | sufficient level uptake |  |  | lower
